This passage reports IC50 results from US20250289789A1, “REVERSIBLE LYSINE COVALENT MODIFIERS OF CDK2 AND USES THEREOF” (Terremoto Biosciences, Inc., priority 2023, published 2025).

Holding throughout (type): cell-based
Test [1] addresses T1, CDK4-NanoLuc fusion with CCND1 in 293T or 293 cells (Homo sapiens, UniProt P11802).
T1 construct: host or cells: 293T (ATCC CRL-3216) or 293 (ATCC CRL-1573)
Put plainly: NanoBRET Target Engagement (TE) Intracellular Kinase Assay, CDK4/CCND1. Particulars: NanoBRET TE intracellular kinase assay, 2-hour incubation, read-out: NanoBRET-CDK4/D1 IC50. In general terms: In BRET a luciferase serves as donor, and the signal depends on an acceptor being close.

Test [2] has as its target T2, CDK2-NanoLuc fusion with CCNE1 in 293T or 293 cells (Homo sapiens, UniProt P24941).
T2 construct: host or cells: 293T (ATCC CRL-3216) or 293 (ATCC CRL-1573)
Put plainly: NanoBRET Target Engagement (TE) Intracellular Kinase Assay, CDK2/CCNE1. Particulars: 2-hour incubation.

In test [3] the target is T3, CDK1-NanoLuc fusion with CCNB1 in 293T or 293 cells (Homo sapiens, UniProt P06493).
T3 construct: host or cells: 293T (ATCC CRL-3216) or 293 (ATCC CRL-1573)
Put plainly: NanoBRET Target Engagement (TE) Intracellular Kinase Assay, CDK1/CCNB1. Particulars: NanoBRET TE intracellular kinase assay, 2-hour incubation, read-out: NanoBRET-CDK1/B1 IC50. An outline of the steps: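 293T or 293 cells co-transfected with CDK1-NanoLuc and CCNB1 vectors, incubated 24 h, then exposed to NanoBRET Tracer K-10 plus compound for 2 h at 37° C. BRET ratio (610/450 nm) normalized to DMSO; IC50 from four-parameter logistic fit.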

The subject of test [4] is Phospho-Rb Ser807/811 in OVCAR3 cells. Put plainly: OVCAR3 Phospho-Rb Ser807/811 HTRF assay. Particulars: Homo sapiens, OVCAR3 cells, Phospho-Rb Ser807/811 HTRF, 1 hour incubation, read-out: pRb-OVCAR3 IC50. As for the experimental part: Cells were trypsinized and resuspended in 1 mM hydroxyurea (Sigma; H8627), 90% RPMI and 10% fetal bovine serum. […] Dose response curve normalized to DMSO control was plotted using four-parameter logistic model for IC50 calculation.

The mark [5] stands for this setting: NanoBRET TE intracellular kinase assay, read-out: NanoBRET-CDK2/E1 IC50.
The mark [6] stands for this setting: NanoBRET-CDK2/E1 IC50, NanoBRET TE intracellular kinase assay.

Read-outs that look alike come from different tables or passages of the source.

T3 sequence (P06493 whole entry, the tested form may be a part): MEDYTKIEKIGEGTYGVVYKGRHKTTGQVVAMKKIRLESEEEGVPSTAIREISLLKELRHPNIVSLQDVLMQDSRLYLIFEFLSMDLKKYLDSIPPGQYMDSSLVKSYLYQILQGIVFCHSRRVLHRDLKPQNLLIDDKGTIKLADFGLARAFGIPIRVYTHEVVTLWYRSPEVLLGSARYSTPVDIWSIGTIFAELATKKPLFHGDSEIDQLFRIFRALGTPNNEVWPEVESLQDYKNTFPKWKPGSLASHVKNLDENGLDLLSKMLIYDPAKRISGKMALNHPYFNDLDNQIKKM
T3 sequence (P14635 whole entry partner, the tested form may be a part): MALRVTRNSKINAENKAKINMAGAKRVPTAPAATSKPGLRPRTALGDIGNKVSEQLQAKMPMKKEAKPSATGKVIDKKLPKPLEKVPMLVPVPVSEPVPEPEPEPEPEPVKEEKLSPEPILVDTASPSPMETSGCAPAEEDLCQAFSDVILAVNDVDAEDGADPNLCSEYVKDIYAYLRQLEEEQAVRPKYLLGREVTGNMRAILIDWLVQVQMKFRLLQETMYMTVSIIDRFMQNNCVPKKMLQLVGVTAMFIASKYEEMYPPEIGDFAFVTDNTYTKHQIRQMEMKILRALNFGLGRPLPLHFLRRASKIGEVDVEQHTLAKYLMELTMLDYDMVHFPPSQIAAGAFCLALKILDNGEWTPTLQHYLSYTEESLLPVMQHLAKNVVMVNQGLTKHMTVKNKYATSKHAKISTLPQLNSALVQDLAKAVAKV
T1 sequence (P11802 whole entry, the tested form may be a part): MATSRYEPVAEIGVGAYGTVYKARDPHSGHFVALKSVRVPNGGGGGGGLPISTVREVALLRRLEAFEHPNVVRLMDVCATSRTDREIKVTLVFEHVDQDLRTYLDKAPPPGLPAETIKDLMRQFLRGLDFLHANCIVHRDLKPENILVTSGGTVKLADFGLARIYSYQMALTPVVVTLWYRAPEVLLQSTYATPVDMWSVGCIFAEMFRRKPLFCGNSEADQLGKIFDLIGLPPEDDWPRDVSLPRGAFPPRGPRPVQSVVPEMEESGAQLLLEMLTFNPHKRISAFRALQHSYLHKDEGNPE
T1 sequence (P24385 whole entry partner, the tested form may be a part): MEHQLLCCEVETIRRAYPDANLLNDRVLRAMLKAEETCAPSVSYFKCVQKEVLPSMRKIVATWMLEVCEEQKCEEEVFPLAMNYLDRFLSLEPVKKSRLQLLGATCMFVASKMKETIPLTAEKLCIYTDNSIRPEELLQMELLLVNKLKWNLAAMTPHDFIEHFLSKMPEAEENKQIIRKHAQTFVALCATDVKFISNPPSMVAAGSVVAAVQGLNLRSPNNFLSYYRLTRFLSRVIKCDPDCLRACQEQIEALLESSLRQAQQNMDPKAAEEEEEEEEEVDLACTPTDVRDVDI

Turning to `CC(C)NC(=O)O[C@@H]1CC[C@H](c2cc(NC(=O)COc3cccc(Cl)c3C=O)n[nH]2)C1` [Compound 97, (1R,3S)-3-{5-[2-(3-chloro-2-formylphenoxy)acetamido]-2H-pyrazol-3-yl}cyclopentyl N-isopropylcarbamate], the IC50 came to 9440 nM in test [1]; 8.75 nM in test [2] (setting [5]); 1140 nM in test [3]; 3020 nM in test [4] (OVCAR-3, 1 h).
The matching figures for `CC(C)NC(=O)O[C@@H]1CC[C@H](c2cc(NC(=O)COc3cccc(-c4nccs4)c3C=O)n[nH]2)C1` [Compound 98, (1R,3S)-3-(3-(2-(2-formyl-3-(thiazol-2-yl)phenoxy)acetamido)-1H-pyrazol-5-yl)cyclopentyl isopropylcarbamate]: more than 10000 nM, 12 nM, 1490 nM and 3340 nM.
The matching figures for `C#Cc1cc(O)c(C=O)c(OCC(=O)Nc2cc([C@H]3CC[C@@H](OC(=O)NC(C)C)C3)[nH]n2)c1` [Compound 99, (1R,3S)-3-(3-(2-(5-ethynyl-2-formyl-3-hydroxyphenoxy)acetamido)-1H-pyrazol-5-yl)cyclopentyl isopropylcarbamate]: more than 10000 nM, 3.14 nM, 21.4 nM and 259 nM.
Consider `CC(C)NC(=O)O[C@@H]1CC[C@H](c2cc(NC(=O)COc3cc(OC(F)F)cc(O)c3C=O)n[nH]2)C1` [Compound 100, (1R,3S)-3-(5-{2-[5-(difluoromethoxy)-2-formyl-3-hydroxyphenoxy]acetamido}-2H-pyrazol-3-yl)cyclopentyl N-isopropylcarbamate], for which the IC50 was 8710 nM in test [1]; 7.32 nM in test [2] (setting [5]); 12.8 nM in test [3]; 120 nM in test [4] (OVCAR-3, 1 h).
Regarding `C[C@@H]1CCCN1C(=O)O[C@@H]1CC[C@H](c2cc(NC(=O)COc3cccc(O)c3C=O)n[nH]2)C1` [Compound 101, (1R,3S)-3-{5-[2-(2-formyl-3-hydroxyphenoxy)acetamido]-2H-pyrazol-3-yl}cyclopentyl (2R)-2-methylpyrrolidine-1-carboxylate; trifluoro-acetic acid], the IC50 in test [1] is 9200 nM; in test [2] (setting [6]), 5.79 nM; in test [3] it was 20.3 nM; in test [4] (OVCAR-3), 188 nM.
With `C[C@H]1CCCN1C(=O)O[C@@H]1CC[C@H](c2cc(NC(=O)COc3cccc(O)c3C=O)n[nH]2)C1` [Compound 102, (S)-((1R,3S)-3-(3-(2-(2-formyl-3-hydroxyphenoxy)acetamido)-1H-pyrazol-5-yl)cyclopentyl) 2-methylpyrrolidine-1-carboxylate; trifluoroacetic acid], the IC50 in test [1] is 2860 nM; in test [2] (setting [6]) it was 4.16 nM; in test [3], 8.39 nM; in test [4] (OVCAR-3), 78.2 nM.
Regarding `COc1cccc(OCC(=O)Nc2cc([C@H]3CC[C@@H](OC(=O)NC4(C)CCC4)C3)[nH]n2)c1C=O` [Compound 105, (1R,3S)-3-{5-[2-(2-formyl-3-methoxyphenoxy)acetamido]-2H-pyrazol-3-yl}cyclopentyl N-(1-methylcyclobutyl)carbamate; trifluoroacetic acid], the IC50 was determined as 2350 nM in test [1]; 1.01 nM in test [2] (setting [5]); 2.18 nM in test [3]; 65.8 nM in test [4] (OVCAR-3, 1 h).
Turning to `COc1cccc(-c2cc(C(=O)Nc3cc([C@H]4CC[C@@H](OC(=O)NC(C)C)C4)[nH]n3)n(C)n2)c1C=O` [Compound 106, (1R,3S)-3-{5-[5-(2-formyl-3-methoxyphenyl)-2-methylpyrazole-3-amido]-2H-pyrazol-3-yl}cyclopentyl N-isopropylcarbamate; trifluoroacetic acid], the IC50 in test [1] came to 3330 nM; in test [2] (setting [5]), 4.3 nM; in test [3] it was 15.4 nM; in test [4] (OVCAR-3, 1 h), 306 nM.
The matching figures for `CC(C)NC(=O)O[C@@H]1CC[C@H](c2cc(NC(=O)[C@H]3C[C@H](c4cccc(O)c4C=O)C3)n[nH]2)C1` [Compound 107, (1R,3S)-3-(3-((1r,3S)-3-(2-formyl-3-hydroxyphenyl)cyclobutane-1-carboxamido)-1H-pyrazol-5-yl)cyclopentyl isopropylcarbamate]: 224 nM, 4.4 nM, 12 nM and 59.6 nM.
The matching figures for `COc1cc(OC)c(C=O)c(OCC(=O)Nc2cc([C@H]3C[C@@H](OC(=O)N4C5COCC4C5)C3)[nH]n2)c1` [Compound 108, (1s,3s)-3-(3-(2-(2-formyl-3,5-dimethoxyphenoxy)acetamido)-1H-pyrazol-5-yl)cyclobutyl 3-oxa-6-azabicyclo[3.1.1]heptane-6-carboxylate]: more than 10000 nM, 3.65 nM, 15.2 nM and 44.4 nM.
`COc1cc(OC)c(C=O)c(OCC(=O)Nc2cc([C@H]3C[C@@H](OC(=O)N4CCC4(C)C)C3)[nH]n2)c1` [Compound 109, (1s,3s)-3-(3-(2-(2-formyl-3,5-dimethoxyphenoxy)acetamido)-1H-pyrazol-5-yl)cyclobutyl 2,2-dimethylazetidine-1-carboxylate]: the IC50 was 4370 nM in test [1]; 1.85 nM in test [2] (setting [5]); 4.14 nM in test [3]; 17.6 nM in test [4] (OVCAR-3, 1 h).
The matching figures for `CCCNC(=O)O[C@H]1C[C@@H](c2cc(NC(=O)COc3cc(OC)cc(OC)c3C=O)n[nH]2)C1` [Compound 110, (1s,3s)-3-(3-(2-(2-formyl-3,5-dimethoxyphenoxy)acetamido)-1H-pyrazol-5-yl)cyclobutyl propylcarbamate]: 5360 nM, 2.9 nM, 7.64 nM and 27.7 nM.
The matching figures for `COc1cc(O)c(C=O)c(OCC(=O)Nc2cc([C@H]3C[C@@H](OC(=O)N4C5COCC4C5)C3)[nH]n2)c1` [Compound 111, (1s,3s)-3-(3-(2-(2-formyl-3-hydroxy-5-methoxyphenoxy)acetamido)-1H-pyrazol-5-yl)cyclobutyl 3-oxa-6-azabicyclo[3.1.1]heptane-6-carboxylate]: more than 10000 nM, 5.45 nM, 21 nM and 79.8 nM.
The matching figures for `COc1cc(O)c(C=O)c(OCC(=O)Nc2cc([C@H]3C[C@@H](OC(=O)N4CCCC4)C3)[nH]n2)c1` [Compound 112, (1s,3s)-3-(3-(2-(2-formyl-3-hydroxy-5-methoxyphenoxy)acetamido)-1H-pyrazol-5-yl)cyclobutyl pyrrolidine-1-carboxylate]: more than 10000 nM, 4.69 nM, 36 nM and 149 nM.
Turning to `COc1cc(O)c(C=O)c(OCC(=O)Nc2cc([C@H]3C[C@@H](OC(=O)NC(C)C)C3)[nH]n2)c1` [Compound 113, (1s,3s)-3-(3-(2-(2-formyl-3-hydroxy-5-methoxyphenoxy)acetamido)-1H-pyrazol-5-yl)cyclobutyl isopropylcarbamate], the IC50 in test [1] was more than 10000 nM; in test [2] (setting [5]) it was 4.13 nM; in test [3], 11.4 nM; in test [4] (OVCAR-3, 1 h), 61.6 nM.
